# According to US11040052B2, “Methods and pharmaceutical compositions for modulating autophagy in a subject in need thereof” (INSERM (INSTITUT NATIONAL DE LA SANTE ET DE LA RECHERCHE …, priority 2013, dated 2021):
# Entries after “also recorded” stand apart in the source; their conditions may differ.
# Assays:
# [1] = test system: TAC-induced cardiac autophagy and remodeling; assay: In vivo model of pressure overload (thoracic aortic constriction, TAC); design: species or system mice; details: daily intra-peritoneal 300 mg/kg
# Protocol: Immuno-histochemical staining of heart tissue sections was performed using the Novolink Kit (Menarini Diagnostics, RE7140-K), as previously described (Ladoire et al., 2012). Briefly, […] formalin-fixed, paraffin-embedded tissue sections were deparaffinized with 3 successive passages through xylene, and rehydrated through decreasing concentrations (100%, 95%, 80%, 70% and 50%) of ethanol. Antigen retrieval was performed by heating slides for 30 min in pH 6.0 citrate buffer at 95° C. Slides were then allowed to cool at room temperature for 45 min, mounted on Shandon Sequenza coverplates (Thermo Fisher Scientific, 72-199-50) in distilled water, and then washed twice for 5 min with 0.1% Tween 20 (v/v in PBS). Thereafter, sections were incubated for 5 min with the Peroxidase Block reagent, and subsequently washed twice for 5 min with 0.1% Tween 20 (v/v in PBS). […] Two-dimensional echocardiography was performed prior to surgery and 1 week post-surgery in non-sedated mice to quantify functional parameters using a Vevo 2100 high-resolution imaging system (Visual Sonics). […] Quantitative analysis was obtained through measurement of an average of 900 cells in each section from two (sham) or three (TAC) animals.
# [2] = test system: intracellular amino acid levels; assay: Intracellular amino acid levels by mass spectrometry; type: cell-based; details: starved cells
# Protocol: Profiling of intracellular metabolites was performed on a RRLC 1260 system (Agilent Technologies) coupled to a QTOF 6520 (Agilent) equipped with an electrospray source operating in positive ion and full scan mode from 100 to 1000 Da. The gas temperature was set at 350° C. with a gas flow of 10 L·min^1. The capillary voltage was set at 4.0 kV, and the fragmentor at 150 V. Two reference masses were used to maintain the mass accuracy during analysis: 121.050873 (C5H4N4) and 922.009798 (C18H18O6N3P3F24). Five μL of sample were injected on a 150 mm×2.1 mm 3.5 μm SB Aq column (Agilent) with a pre-column 30 mm×2.1 mm 3.5 μm Eclipse plus (Agilent). The gradient mobile phase consisted of water with 10 mmol/L of ammonium acetate and 0.01% of acetic acid (A) and acetonitrile (B). Initial composition of mobile phase was 2% of B, followed by an increase to 95% of B in 10 min. The flow rate was set to 0.3 mL·min^−1.
# [3] = test system: MPA/DMBA induced mammary tumors; assay: MPA/DMBA induced mammary tumor; type: in vivo, mice
# Protocol: Six-week-old female Balb/c mice underwent surgical implantation of slow-release MPA (Medroxyprogesterone Acetate) pellets (50 mg, 90-day release; Innovative Research of America) subcutaneously on the right flank. 200 uL of 5 mg/mL DMBA (Dimethylbenzantracene)
# (Sigma Aldrich) dissolved in Corn Oil was administered by oral gavage six times during 8 weeks. Tumor formation was monitored by palpation. When tumors became palpable, mice were assigned to following groups of treatment: PBS, HCA, MTX, MTX plus HCA and the MTX plus HCA upon CD4/CD8 lymphocytes depletion. Combinatorial groups were treated as previously described, whereas for CD4/CD8 depletion, mice were intraperitoneally administrated with 500 μg of anti CD4 and CD8 antibodies the day before the onset of the treatment.
# MCA205 cells = assay: Labeling of vesicular ATP in vitro (quinacrine/PI); type: cell-based, murine; details: compared to MTX alone
# Protocol: MCA205 cells were loaded with […] quinacrine in Krebs-Ringer solution (125 mM NaCl, 5 mM KCl, 1 mM MgSO4, 0.7 mM KH2PO4, 2 mM CaCl2), 6 mM glucose and 25 mM HEPES buffer, pH 7.4) for 30 min at 37 1C. Thereafter, cells were co-stained for 10 min with […] propidium iodide (PI) and […] Hoechst 33342 (both from Molecular Probes-Life Technologies), rinsed with Krebs-Ringer solution and analyzed by automated fluorescence microscopy.
# [4] = test system: CD4+CD25+Foxp3+ Tregs in tumor bed; assay: Detection of tumor-infiltrated Tregs (flow cytometry); type: in vivo, mice; details: compared with MTX group
# Protocol: Tumors were digested using Miltenyi Biotec tumor digestion kit according to manufacturer's protocol. Single cells were resuspended in RPMI 1640 and sequentially passed through 100 μm and 70 μM nylon cell strainers (BD Biosciences). Leukocytes were purified using Miltenyi Biotec magnetic beads conjugated to monoclonal anti-mouse CD45 (clone 30F11.1) according to the supplier's recommendations. Prior to staining of TIL populations for flow cytometry analysis, samples were incubated with LIVE/DEAD® Fixable Yellow Dead Cell dyes (Invitrogen) to discriminate viable cells from damaged cells. TILs were incubated with antibodies against CD16/CD32 before staining with fluorescent-labeled antibodies targeting T-cell surface markers. Then, cells were permeabilized and fixed with eBioscience Foxp3/Transcription Factor Staining Buffer Set and stained for intracellular Foxp3. Data were acquired using a MACSQuant flow cytometer (Miltenyi Biotec) and analyzed with FlowJo v. X PC software (Treestar, Oreg., USA). Tregs were defined as CD3+ CD4+ CD8− CD25+ Foxp3+ T-cell population.
Structure (SMILES),TAC-induced cardiac autophagy [1],TAC-induced pathological remodeling / heart failure features [1],intracellular amino acid levels [2],"survival, combined with MTX ([3]; Kaplan-Meier)","mammary tumor growth and survival, combined with MTX, T cell depleted ([3]; depletion of CD4 and CD8 T lymphocytes)","mammary tumor growth, combined with MTX ([3]; mice capable of T-cell dependent immune response)","mammary tumor growth, monotherapy ([3]; mouse, in vivo)","ATP release in vitro, combined with MTX (MCA205 cells)","Foxp3+ Tregs in tumor bed, combined with MTX [4]"
"COC(=O)CCC(=O)C(=O)OC [DMKG, dimethyl-α-ketoglutarate]",decreased cardiac autophagy induced by thoracic aortic constriction (TAC); also recorded: inhibited the maladaptive accumulation of autophagosomes,suppressed TAC-induced pathological remodeling; also recorded: suppressed multiple features of TAC-induced heart failure,failed to enhance intracellular amino acid levels,–,–,–,–,–,–
"O=C(O)CC(O)(C(=O)O)C(O)C(=O)O (stereo not shown) [HC, hydroxycitrate]",–,–,–,significantly increased survival,Beneficial effect of combinatorial treatment is lost,significantly diminish tumor growth; also recorded: unless they were combined,had little effect,marked increase in ATP release; also recorded: particularly efficient in inducing the autophagy-dependent release of ATP,reduces Treg infiltration in tumor bed; also recorded: particularly efficient in reducing the frequency of Foxp3^+ Tregs in tumors
"CC(C)CC(=O)C(=O)O [KIC, ketoisocaproic acid]",–,–,barely increased intracellular leucine levels,–,–,–,–,–,–
